Experimental data taken from patent US6437128B1, “Cribrostatins 3-5” (Arizona Board of Regents, priority 2001, dated 2002).

Experiments:
[1] = system: NCI 60-cell in vitro panel; test: NCI 60-cell in vitro panel, mean panel; format: cell-based, human; details: Homo sapiens, 60 cell; average ±SEM from the 40 cell lines that yielded GI50 values for both 4a and 5
From the text: Individual cell line response values are provided in the Experimental.

K-562 = test: NCI 60-cell screen; format: cell-based, human; details: Homo sapiens, K562, averaged, quadruplicate, upper limit 10^−5 M, read-out: negative log10 GI50 (converted)
RPMI-8226 = test: NCI 60-cell screen; format: cell-based, human; details: Homo sapiens, averaged, quadruplicate, upper limit 10^−5 M, read-out: negative log10 GI50 (converted)
HOP-92 = test: NCI 60-cell screen; format: cell-based, human; details: Homo sapiens, averaged, quadruplicate, upper limit 10^−5 M, read-out: negative log10 GI50 (converted)
NCI-H460 = test: NCI 60-cell screen; format: cell-based, human; details: Homo sapiens, averaged, quadruplicate, upper limit 10^−5 M, read-out: negative log10 GI50 (converted)
SF-268 = test: NCI 60-cell screen; format: cell-based, human; details: Homo sapiens, averaged, quadruplicate, upper limit 10^−5 M, read-out: negative log10 GI50 (converted)
SF-295 = test: NCI 60-cell screen; format: cell-based, human; details: Homo sapiens, averaged, quadruplicate, upper limit 10^−5 M, read-out: negative log10 GI50 (converted)
SNB-75 = test: NCI 60-cell screen; format: cell-based, human; details: Homo sapiens, averaged, quadruplicate, upper limit 10^−5 M, read-out: negative log10 GI50 (converted)
U251 = test: NCI 60-cell screen; format: cell-based, human; details: Homo sapiens, U-251, averaged, quadruplicate, upper limit 10^−5 M, read-out: negative log10 GI50 (converted)
LOX IMVI = test: NCI 60-cell screen; format: cell-based, human; details: Homo sapiens, averaged, quadruplicate, upper limit 10^−5 M, read-out: negative log10 GI50 (converted)
MALME-3M = test: NCI 60-cell screen; format: cell-based, human; details: Homo sapiens, averaged, quadruplicate, upper limit 10^−5 M, read-out: negative log10 GI50 (converted)
UACC-62 = test: NCI 60-cell screen; format: cell-based, human; details: Homo sapiens, averaged, quadruplicate, upper limit 10^−5 M, read-out: negative log10 GI50 (converted)
RXF-393 = test: NCI 60-cell screen; format: cell-based, human; details: Homo sapiens, averaged, quadruplicate, upper limit 10^−5 M, read-out: negative log10 GI50 (converted)
SN12C = test: NCI 60-cell screen; format: cell-based, human; details: Homo sapiens, averaged, quadruplicate, upper limit 10^−5 M, read-out: negative log10 GI50 (converted)
MCF7/ADR-RES = test: NCI 60-cell screen; format: cell-based, human; details: Homo sapiens, averaged, quadruplicate, upper limit 10^−5 M, read-out: negative log10 GI50 (converted)
HS578T = test: NCI 60-cell screen; format: cell-based, human; details: Homo sapiens, Hs-578T, averaged, quadruplicate, upper limit 10^−5 M, read-out: negative log10 GI50 (converted)
MDA-MB-435 = test: NCI 60-cell screen; format: cell-based, human; details: Homo sapiens, averaged, quadruplicate, upper limit 10^−5 M, read-out: negative log10 GI50 (converted)
[2] = system: Enterococcus faecalis (ATCC 29212); test: Antimicrobial disk diffusion; format: cell-based
[3] = system: Bacillus subtilis (Presque Isle 620); test: Antimicrobial disk diffusion; format: cell-based; details: listed as 5
[4] = system: Streptococcus pneumoniae (ATCC 6303); test: Antimicrobial disk diffusion; format: cell-based; details: listed as 5
[5] = system: Stenotrophomonas maltophilia (ATCC 13637); test: Antimicrobial disk diffusion; format: cell-based
[6] = system: Enterobacter cloacae (ATCC 13047); test: Antimicrobial disk diffusion; format: cell-based
[7] = system: Neisseria gonorrhoeae (ATCC 49226); test: Antimicrobial disk diffusion; format: cell-based

C/C=C(/C)C(=O)OC[C@H]1C2=C(C=C3[C@H]4c5c(O)c(OC)c(C)c(O)c5C(=O)[C@@H](C(=O)N31)N4C)C(=O)C(C)=C(OC)C2=O [Cribrostatin 4, cribrostatin 4]
GI50 [1]: 5.01 µM | GI50 (K-562): 4.37 µM | GI50 (RPMI-8226): 6.17 µM | GI50 (HOP-92): 8.13 µM | GI50 (NCI-H460): 7.59 µM | GI50 (SF-268): 9.55 µM | GI50 (SF-295): 8.91 µM | GI50 (SNB-75): 5.62 µM | GI50 (U251): 6.46 µM | GI50 (LOX IMVI): 3.31 µM | GI50 (MALME-3M): 0.389 µM | GI50 (UACC-62): 9.77 µM | GI50 (RXF-393): 5.25 µM | GI50 (SN12C): 7.08 µM | GI50 (MCF7/ADR-RES): 6.76 µM | GI50 (HS578T): 8.71 µM | GI50 (MDA-MB-435): 1.82 µM | Minimum inhibitory concentration [2]: * (No inhibition at 100 μg/disk) | Minimum inhibitory concentration [3]: 12.5-25 μg/disk | Minimum inhibitory concentration [4]: 6.25-12.5 μg/disk | Minimum inhibitory concentration [5]: * (No inhibition at 100 μg/disk) | Minimum inhibitory concentration [6]: * (No inhibition at 100 μg/disk) | Minimum inhibitory concentration [7]: 6.25-12.5 μg/disk | melting point: 190 to 192 °C (dec.)
